{"source": "paper PMC9097471", "about": "“Development of Selective Phosphatidylinositol 5-Phosphate 4-Kinase γ Inhibitors with a Non-ATP-competitive, Allosteric Binding Mode” (Journal of Medicinal Chemistry, 2022)", "key": {"PI5P4Kγ+": {"target": "PI5P4Kγ+ (Homo sapiens, UniProt Q8TBX8, D138G/D197E/E133P/E135D/E153T/E196G/G136S/G139A/N195G/S132L/S134N)", "experiment": "Thermal shift assay", "details": "read-out: ΔTm PI5P4Kγ+"}, "MARK3": {"target": "MARK3 (Homo sapiens, UniProt P27448)", "sequence (P27448 whole entry)": "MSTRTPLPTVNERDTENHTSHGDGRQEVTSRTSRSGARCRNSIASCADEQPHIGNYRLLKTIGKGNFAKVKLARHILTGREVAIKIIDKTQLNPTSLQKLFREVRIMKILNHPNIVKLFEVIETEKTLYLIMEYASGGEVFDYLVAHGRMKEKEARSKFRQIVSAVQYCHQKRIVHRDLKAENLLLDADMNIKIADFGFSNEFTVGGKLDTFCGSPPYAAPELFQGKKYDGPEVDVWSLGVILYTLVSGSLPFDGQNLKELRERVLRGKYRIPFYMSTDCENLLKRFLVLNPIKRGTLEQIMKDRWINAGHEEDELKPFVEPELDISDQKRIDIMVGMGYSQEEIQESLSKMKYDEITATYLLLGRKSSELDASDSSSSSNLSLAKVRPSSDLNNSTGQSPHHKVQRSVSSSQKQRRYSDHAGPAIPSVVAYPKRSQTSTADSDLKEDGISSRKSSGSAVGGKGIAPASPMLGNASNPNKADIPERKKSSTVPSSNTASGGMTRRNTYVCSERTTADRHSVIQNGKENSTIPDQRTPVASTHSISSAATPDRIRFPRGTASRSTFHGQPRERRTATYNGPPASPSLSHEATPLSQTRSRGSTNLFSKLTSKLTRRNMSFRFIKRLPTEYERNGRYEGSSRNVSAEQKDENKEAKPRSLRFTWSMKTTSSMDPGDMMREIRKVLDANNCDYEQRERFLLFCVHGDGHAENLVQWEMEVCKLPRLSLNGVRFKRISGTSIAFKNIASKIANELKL", "experiment": "Kinase panel, radiometric 33P filter binding", "details": "read-out: % activity remaining", "excerpt": "(§1) filter binding assay using 33P-g-ATPat the MRC PPU International Centre for Kinase Profiling, University of"}, "PAK6": {"target": "PAK6 (Homo sapiens, UniProt Q9NQU5)", "experiment": "Kinase panel, radiometric 33P filter binding", "details": "read-out: % activity remaining"}, "MST4": {"target": "MST4 (Homo sapiens, UniProt Q9P289)", "sequence (Q9P289 whole entry)": "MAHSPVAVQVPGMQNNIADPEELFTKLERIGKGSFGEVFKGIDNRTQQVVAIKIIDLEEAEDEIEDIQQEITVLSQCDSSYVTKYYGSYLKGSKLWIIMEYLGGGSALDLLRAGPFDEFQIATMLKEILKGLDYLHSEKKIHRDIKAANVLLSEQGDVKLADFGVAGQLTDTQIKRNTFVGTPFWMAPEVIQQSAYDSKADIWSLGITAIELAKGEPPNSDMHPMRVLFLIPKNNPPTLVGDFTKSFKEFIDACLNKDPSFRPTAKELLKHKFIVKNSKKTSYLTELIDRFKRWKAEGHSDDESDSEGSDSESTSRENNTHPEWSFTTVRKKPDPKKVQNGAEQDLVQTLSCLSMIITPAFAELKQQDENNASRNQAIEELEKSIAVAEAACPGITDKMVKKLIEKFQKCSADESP", "experiment": "Kinase panel, radiometric 33P filter binding", "details": "read-out: % activity remaining"}, "BRK": {"target": "BRK (Homo sapiens, UniProt Q13882)", "experiment": "Kinase panel, radiometric 33P filter binding", "details": "read-out: % activity remaining", "excerpt": "as §1"}, "EPH-A2": {"target": "EPH-A2 (Homo sapiens, UniProt P29317)", "experiment": "Kinase panel, radiometric 33P filter binding", "details": "read-out: % activity remaining", "excerpt": "as §1"}, "IKKb": {"target": "IKKb (Homo sapiens, UniProt O14920)", "sequence (O14920 whole entry)": "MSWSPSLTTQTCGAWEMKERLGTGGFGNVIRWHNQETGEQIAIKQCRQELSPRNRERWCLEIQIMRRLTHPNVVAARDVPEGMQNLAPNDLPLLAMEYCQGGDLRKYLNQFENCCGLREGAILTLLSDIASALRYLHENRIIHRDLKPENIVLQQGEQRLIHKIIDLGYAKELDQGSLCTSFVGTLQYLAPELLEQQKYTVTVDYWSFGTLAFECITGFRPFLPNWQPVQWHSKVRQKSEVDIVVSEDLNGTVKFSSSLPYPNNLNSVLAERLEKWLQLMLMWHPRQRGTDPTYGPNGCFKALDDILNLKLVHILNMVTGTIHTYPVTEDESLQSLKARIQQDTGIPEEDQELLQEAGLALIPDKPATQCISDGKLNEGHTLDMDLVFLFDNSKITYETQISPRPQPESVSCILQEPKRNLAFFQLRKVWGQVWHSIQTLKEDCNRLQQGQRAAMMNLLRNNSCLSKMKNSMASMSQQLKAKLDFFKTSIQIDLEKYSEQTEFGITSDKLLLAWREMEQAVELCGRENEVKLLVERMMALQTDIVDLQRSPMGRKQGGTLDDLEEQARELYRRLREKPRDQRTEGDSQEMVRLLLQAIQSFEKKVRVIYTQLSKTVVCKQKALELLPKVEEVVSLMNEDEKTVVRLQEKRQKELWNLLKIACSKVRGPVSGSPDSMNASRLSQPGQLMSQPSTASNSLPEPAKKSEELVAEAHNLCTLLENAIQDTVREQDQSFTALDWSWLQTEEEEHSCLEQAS", "experiment": "Kinase panel, radiometric 33P filter binding", "details": "read-out: % activity remaining", "excerpt": "as §1\nKinase % activity remaining s.d."}, "MKK1": {"target": "MKK1 (Homo sapiens, UniProt Q02750)", "experiment": "Kinase panel, radiometric 33P filter binding", "details": "read-out: % activity remaining"}, "BRSK1": {"target": "BRSK1 (Homo sapiens, UniProt Q8TDC3)", "experiment": "Kinase panel, radiometric 33P filter binding", "details": "read-out: % activity remaining", "excerpt": "as §1"}, "MARK4": {"target": "MARK4 (Homo sapiens, UniProt Q96L34)", "experiment": "Kinase panel, radiometric 33P filter binding", "details": "read-out: % activity remaining", "excerpt": "as §1"}, "PDK1": {"target": "PDK1 (Homo sapiens, UniProt O15530)", "experiment": "Kinase panel, radiometric 33P filter binding", "details": "read-out: % activity remaining", "excerpt": "as §1"}, "TGFBR1": {"target": "TGFBR1 (Homo sapiens, UniProt P36897)", "experiment": "Kinase panel, radiometric 33P filter binding", "details": "read-out: % activity remaining"}, "STK33": {"target": "STK33 (Homo sapiens, UniProt Q9BYT3)", "experiment": "Kinase panel, radiometric 33P filter binding", "details": "read-out: % activity remaining", "excerpt": "as §1"}, "MAPKAP-K3": {"target": "MAPKAP-K3 (Homo sapiens, UniProt Q16644)", "sequence (Q16644 whole entry)": "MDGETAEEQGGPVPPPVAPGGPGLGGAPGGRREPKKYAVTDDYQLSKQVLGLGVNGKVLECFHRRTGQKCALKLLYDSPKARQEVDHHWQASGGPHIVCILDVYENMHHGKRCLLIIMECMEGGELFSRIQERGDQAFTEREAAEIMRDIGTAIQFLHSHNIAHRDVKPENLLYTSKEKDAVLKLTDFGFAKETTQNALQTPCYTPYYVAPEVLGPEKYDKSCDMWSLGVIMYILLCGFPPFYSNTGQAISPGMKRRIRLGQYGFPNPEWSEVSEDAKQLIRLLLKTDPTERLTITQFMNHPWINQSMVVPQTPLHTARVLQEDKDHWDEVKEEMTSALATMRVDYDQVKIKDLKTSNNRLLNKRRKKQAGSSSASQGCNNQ", "experiment": "Kinase panel, radiometric 33P filter binding", "details": "read-out: % activity remaining"}, "MARK2": {"target": "MARK2 (Homo sapiens, UniProt Q7KZI7)", "sequence (Q7KZI7 whole entry)": "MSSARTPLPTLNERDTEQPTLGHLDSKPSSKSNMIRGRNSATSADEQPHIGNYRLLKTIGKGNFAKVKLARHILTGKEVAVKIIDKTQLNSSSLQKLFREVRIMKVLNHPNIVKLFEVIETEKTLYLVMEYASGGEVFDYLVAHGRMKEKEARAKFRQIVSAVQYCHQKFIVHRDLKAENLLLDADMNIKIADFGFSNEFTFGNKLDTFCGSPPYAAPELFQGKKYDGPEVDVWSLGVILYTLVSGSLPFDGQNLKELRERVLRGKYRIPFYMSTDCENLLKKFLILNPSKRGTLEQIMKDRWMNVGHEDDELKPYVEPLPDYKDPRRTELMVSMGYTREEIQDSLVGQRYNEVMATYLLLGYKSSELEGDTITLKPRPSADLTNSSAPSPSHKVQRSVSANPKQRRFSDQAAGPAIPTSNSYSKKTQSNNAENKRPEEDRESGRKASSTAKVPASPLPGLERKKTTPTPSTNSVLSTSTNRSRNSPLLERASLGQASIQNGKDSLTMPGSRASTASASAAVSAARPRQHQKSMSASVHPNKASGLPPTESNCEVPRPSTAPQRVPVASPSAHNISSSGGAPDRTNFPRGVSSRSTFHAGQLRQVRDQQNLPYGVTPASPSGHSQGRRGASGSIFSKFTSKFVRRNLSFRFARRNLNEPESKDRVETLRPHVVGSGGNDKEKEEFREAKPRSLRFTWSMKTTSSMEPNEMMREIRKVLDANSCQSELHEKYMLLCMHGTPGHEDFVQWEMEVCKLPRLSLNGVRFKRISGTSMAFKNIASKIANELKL", "experiment": "Kinase panel, radiometric 33P filter binding", "details": "read-out: % activity remaining", "excerpt": "as §1"}, "CHK2": {"target": "CHK2 (Homo sapiens, UniProt O96017)", "experiment": "Kinase panel, radiometric 33P filter binding", "details": "read-out: % activity remaining", "excerpt": "as §1"}, "EF2K": {"target": "EF2K (Homo sapiens, UniProt O00418)", "experiment": "Kinase panel, radiometric 33P filter binding", "details": "read-out: % activity remaining", "excerpt": "as §1"}, "p38d MAPK": {"target": "p38d MAPK (Homo sapiens, UniProt O15264)", "sequence (O15264 whole entry)": "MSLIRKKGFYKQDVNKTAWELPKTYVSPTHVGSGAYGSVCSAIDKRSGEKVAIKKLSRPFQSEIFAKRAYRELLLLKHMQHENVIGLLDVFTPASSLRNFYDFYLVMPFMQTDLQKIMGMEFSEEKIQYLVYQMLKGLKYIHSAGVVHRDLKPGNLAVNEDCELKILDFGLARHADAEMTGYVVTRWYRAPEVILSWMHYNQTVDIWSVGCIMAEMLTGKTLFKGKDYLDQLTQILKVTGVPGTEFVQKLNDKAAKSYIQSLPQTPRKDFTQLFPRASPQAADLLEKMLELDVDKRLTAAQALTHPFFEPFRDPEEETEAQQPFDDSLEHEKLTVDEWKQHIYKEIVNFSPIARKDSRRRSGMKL", "experiment": "Kinase panel, radiometric 33P filter binding", "details": "read-out: % activity remaining", "excerpt": "as §1"}, "Src": {"target": "Src (Homo sapiens, UniProt P12931)", "experiment": "Kinase panel, radiometric 33P filter binding", "details": "read-out: % activity remaining"}, "PKCa": {"target": "PKCa (Homo sapiens, UniProt P17252)", "experiment": "Kinase panel, radiometric 33P filter binding", "details": "read-out: % activity remaining", "excerpt": "as §1"}, "HER4": {"target": "HER4 (Homo sapiens, UniProt Q15303)", "experiment": "Kinase panel, radiometric 33P filter binding", "details": "read-out: % activity remaining", "excerpt": "as §1"}, "BRSK2": {"target": "BRSK2 (Homo sapiens, UniProt Q8IWQ3)", "experiment": "Kinase panel, radiometric 33P filter binding", "details": "read-out: % activity remaining", "excerpt": "as §1\nKinase % activity remaining s.d."}, "MAP4K3": {"target": "MAP4K3 (Homo sapiens, UniProt Q8IVH8)", "experiment": "Kinase panel, radiometric 33P filter binding", "details": "read-out: % activity remaining", "excerpt": "as §1"}, "MPSK1": {"target": "MPSK1 (Homo sapiens, UniProt O75716)", "experiment": "Kinase panel, radiometric 33P filter binding", "details": "read-out: % activity remaining", "excerpt": "as §1"}, "PAK4": {"target": "PAK4 (Homo sapiens, UniProt O96013)", "experiment": "Kinase panel, radiometric 33P filter binding", "details": "read-out: % activity remaining", "excerpt": "as §1"}, "CK1δ": {"target": "CK1δ (Homo sapiens, UniProt P48730)", "experiment": "Kinase panel, radiometric 33P filter binding", "details": "read-out: % activity remaining", "excerpt": "as §1"}, "PAK2": {"target": "PAK2 (Homo sapiens, UniProt Q13177)", "sequence (Q13177 whole entry)": "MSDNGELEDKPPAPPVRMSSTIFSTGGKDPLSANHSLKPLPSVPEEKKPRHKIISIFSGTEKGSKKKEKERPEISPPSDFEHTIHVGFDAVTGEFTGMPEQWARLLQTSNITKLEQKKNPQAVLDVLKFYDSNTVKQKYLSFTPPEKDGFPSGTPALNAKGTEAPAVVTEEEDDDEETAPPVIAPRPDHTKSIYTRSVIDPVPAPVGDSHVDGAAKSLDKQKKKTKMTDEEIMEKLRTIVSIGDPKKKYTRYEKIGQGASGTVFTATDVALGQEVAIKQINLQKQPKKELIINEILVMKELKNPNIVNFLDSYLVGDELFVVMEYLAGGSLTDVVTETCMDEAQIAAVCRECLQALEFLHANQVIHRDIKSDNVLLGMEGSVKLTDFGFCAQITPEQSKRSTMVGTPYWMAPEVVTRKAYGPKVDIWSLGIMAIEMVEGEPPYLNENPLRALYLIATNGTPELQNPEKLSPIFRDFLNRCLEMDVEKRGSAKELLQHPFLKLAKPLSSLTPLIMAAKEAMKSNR", "experiment": "Kinase panel, radiometric 33P filter binding"}, "PKBb": {"target": "PKBb (Homo sapiens, UniProt P31751)", "experiment": "Kinase panel, radiometric 33P filter binding", "details": "read-out: % activity remaining", "excerpt": "as §1"}, "CAMKKb": {"target": "CAMKKb (Homo sapiens, UniProt Q96RR4)", "experiment": "Kinase panel, radiometric 33P filter binding", "details": "read-out: % activity remaining", "excerpt": "as §1"}, "TrkA": {"target": "TrkA (Homo sapiens, UniProt P04629)", "experiment": "Kinase panel, radiometric 33P filter binding", "details": "read-out: % activity remaining", "excerpt": "as §1"}, "DYRK2": {"target": "DYRK2 (Homo sapiens, UniProt Q92630)", "experiment": "Kinase panel, radiometric 33P filter binding", "details": "read-out: % activity remaining", "excerpt": "as §1"}, "DYRK3": {"target": "DYRK3 (Homo sapiens, UniProt O43781)", "experiment": "Kinase panel, radiometric 33P filter binding", "details": "read-out: % activity remaining", "excerpt": "as §1"}, "PIM2": {"target": "PIM2 (Homo sapiens, UniProt Q9P1W9)", "sequence (Q9P1W9 whole entry)": "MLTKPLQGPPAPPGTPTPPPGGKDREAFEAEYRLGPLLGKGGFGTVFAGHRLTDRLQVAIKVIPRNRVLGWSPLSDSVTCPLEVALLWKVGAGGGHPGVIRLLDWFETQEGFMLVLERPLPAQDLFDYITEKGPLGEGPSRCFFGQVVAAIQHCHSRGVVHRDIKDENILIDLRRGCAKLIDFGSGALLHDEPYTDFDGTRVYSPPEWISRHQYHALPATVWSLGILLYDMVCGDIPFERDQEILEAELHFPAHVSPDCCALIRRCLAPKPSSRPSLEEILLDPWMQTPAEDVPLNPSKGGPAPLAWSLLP", "experiment": "Kinase panel, radiometric 33P filter binding", "details": "read-out: % activity remaining", "excerpt": "as §1"}, "CDK2-Cyclin A": {"target": "CDK2-Cyclin A (Homo sapiens, UniProt P24941)", "experiment": "Kinase panel, radiometric 33P filter binding", "details": "read-out: % activity remaining", "excerpt": "as §1"}, "IRAK1": {"target": "IRAK1 (Homo sapiens, UniProt P51617)", "sequence (P51617 whole entry)": "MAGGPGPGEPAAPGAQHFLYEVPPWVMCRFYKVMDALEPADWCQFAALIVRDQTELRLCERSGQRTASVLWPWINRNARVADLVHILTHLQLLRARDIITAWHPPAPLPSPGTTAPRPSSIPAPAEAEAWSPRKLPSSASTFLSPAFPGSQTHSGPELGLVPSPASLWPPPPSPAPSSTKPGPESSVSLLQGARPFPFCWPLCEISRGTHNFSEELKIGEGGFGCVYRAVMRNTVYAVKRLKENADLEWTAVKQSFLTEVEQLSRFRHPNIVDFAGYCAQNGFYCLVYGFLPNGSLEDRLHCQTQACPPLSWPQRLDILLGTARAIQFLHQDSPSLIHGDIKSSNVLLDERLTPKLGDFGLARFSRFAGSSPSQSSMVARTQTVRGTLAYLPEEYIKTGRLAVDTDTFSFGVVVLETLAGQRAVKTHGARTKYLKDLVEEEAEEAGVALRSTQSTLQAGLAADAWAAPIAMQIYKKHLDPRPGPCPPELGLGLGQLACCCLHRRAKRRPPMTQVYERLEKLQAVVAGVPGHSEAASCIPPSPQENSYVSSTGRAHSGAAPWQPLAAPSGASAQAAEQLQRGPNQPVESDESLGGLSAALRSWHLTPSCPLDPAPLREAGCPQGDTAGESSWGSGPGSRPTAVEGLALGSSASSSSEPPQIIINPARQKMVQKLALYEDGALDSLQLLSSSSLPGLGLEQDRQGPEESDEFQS", "experiment": "Kinase panel, radiometric 33P filter binding", "details": "read-out: % activity remaining"}, "Aurora B": {"target": "Aurora B (Homo sapiens, UniProt Q96GD4)", "experiment": "Kinase panel, radiometric 33P filter binding", "details": "read-out: % activity remaining", "excerpt": "as §1"}, "PHK": {"target": "PHK (Homo sapiens, UniProt Q16816)", "experiment": "Kinase panel, radiometric 33P filter binding", "details": "read-out: % activity remaining", "excerpt": "as §1"}}, "data": [{"smiles": "FC(F)(F)c1ccccc1-c1nc(NCc2cccs2)c2ccccc2n1", "note": "[Compound 1, NIH-12848, reference compound]", "values": [{"measurement": "ΔTm at 63 µM", "setting": "PI5P4Kγ+", "value": "7.4 ± 0.6", "unit": "°C"}]}, {"smiles": "CC(C)c1ccccc1-c1nc(NCc2ccccn2)c2c(ccn2C)n1", "note": "[Compound 40]", "values": [{"measurement": "remaining activity at 10 µM", "setting": "MARK3", "value": 101, "unit": "%"}, {"measurement": "remaining activity at 10 µM", "setting": "PAK6", "value": 95, "unit": "%"}, {"measurement": "remaining activity at 10 µM", "setting": "MST4", "value": 110, "unit": "%"}, {"measurement": "remaining activity at 10 µM", "setting": "BRK", "value": 112, "unit": "%"}, {"measurement": "remaining activity at 10 µM", "setting": "EPH-A2", "value": 104, "unit": "%"}, {"measurement": "remaining activity at 10 µM", "setting": "IKKb", "value": 100, "unit": "%"}, {"measurement": "remaining activity at 10 µM", "setting": "MKK1", "value": 92, "unit": "%"}, {"measurement": "remaining activity at 10 µM", "setting": "BRSK1", "value": 115, "unit": "%"}, {"measurement": "remaining activity at 10 µM", "setting": "MARK4", "value": 105, "unit": "%"}, {"measurement": "remaining activity at 10 µM", "setting": "PDK1", "value": 103, "unit": "%"}, {"measurement": "remaining activity at 10 µM", "setting": "TGFBR1", "value": 91, "unit": "%"}, {"measurement": "remaining activity at 10 µM", "setting": "STK33", "value": 99, "unit": "%"}, {"measurement": "remaining activity at 10 µM", "setting": "MAPKAP-K3", "value": 102, "unit": "%"}, {"measurement": "remaining activity at 10 µM", "setting": "MARK2", "value": 101, "unit": "%"}, {"measurement": "remaining activity at 10 µM", "setting": "CHK2", "value": 110, "unit": "%"}, {"measurement": "remaining activity at 10 µM", "setting": "EF2K", "value": 98, "unit": "%"}, {"measurement": "remaining activity at 10 µM", "setting": "p38d MAPK", "value": 117, "unit": "%"}, {"measurement": "remaining activity at 10 µM", "setting": "Src", "value": 135, "unit": "%"}, {"measurement": "remaining activity at 10 µM", "setting": "PKCa", "value": 118, "unit": "%"}, {"measurement": "remaining activity at 10 µM", "setting": "HER4", "value": 112, "unit": "%"}, {"measurement": "remaining activity at 10 µM", "setting": "BRSK2", "value": 83, "unit": "%"}, {"measurement": "remaining activity at 10 µM", "setting": "MAP4K3", "value": 91, "unit": "%"}, {"measurement": "remaining activity at 10 µM", "setting": "MPSK1", "value": 106, "unit": "%"}, {"measurement": "remaining activity at 10 µM", "setting": "PAK4", "value": 95, "unit": "%"}, {"measurement": "remaining activity at 10 µM", "setting": "CK1δ", "value": 100, "unit": "%"}, {"measurement": "% activity remaining", "setting": "PAK2; PAK2, 10 μM, 10 µM", "value": "< 50", "unit": "%"}, {"measurement": "remaining activity at 10 µM", "setting": "PAK2; read-out: % activity remaining, PAK2, 10 μM", "value": 45, "unit": "%"}, {"measurement": "remaining activity at 10 µM", "setting": "PKBb", "value": 75, "unit": "%"}, {"measurement": "remaining activity at 10 µM", "setting": "CAMKKb", "value": 99, "unit": "%"}, {"measurement": "remaining activity at 10 µM", "setting": "TrkA", "value": 100, "unit": "%"}, {"measurement": "remaining activity at 10 µM", "setting": "DYRK2", "value": 106, "unit": "%"}, {"measurement": "remaining activity at 10 µM", "setting": "DYRK3", "value": 128, "unit": "%"}, {"measurement": "remaining activity at 10 µM", "setting": "PIM2", "value": 110, "unit": "%"}, {"measurement": "remaining activity at 10 µM", "setting": "CDK2-Cyclin A", "value": 103, "unit": "%"}, {"measurement": "remaining activity at 10 µM", "setting": "IRAK1", "value": 114, "unit": "%"}, {"measurement": "remaining activity at 10 µM", "setting": "Aurora B", "value": 113, "unit": "%"}, {"measurement": "remaining activity at 10 µM", "setting": "PHK", "value": 107, "unit": "%"}]}]}
